Experiment [1] addresses T1, Rho-associated protein kinase 2 (Homo sapiens, UniProt O75116). The experiment is described as follows: Selectivity interaction (SelectScreen profiling (Invitrogen)) EUB0000607a ROCK2. The following applies: at 2 µM.
Experiment [2] has as its target Phosphorylase b kinase gamma catalytic chain, skeletal muscle/heart isoform (Homo sapiens) (UniProt Q16816). The following applies: at 10 µM.
The target in experiment [3] is T2, Receptor-interacting serine/threonine-protein kinase 4 (Homo sapiens) (UniProt P57078).
T2 sequence (whole entry): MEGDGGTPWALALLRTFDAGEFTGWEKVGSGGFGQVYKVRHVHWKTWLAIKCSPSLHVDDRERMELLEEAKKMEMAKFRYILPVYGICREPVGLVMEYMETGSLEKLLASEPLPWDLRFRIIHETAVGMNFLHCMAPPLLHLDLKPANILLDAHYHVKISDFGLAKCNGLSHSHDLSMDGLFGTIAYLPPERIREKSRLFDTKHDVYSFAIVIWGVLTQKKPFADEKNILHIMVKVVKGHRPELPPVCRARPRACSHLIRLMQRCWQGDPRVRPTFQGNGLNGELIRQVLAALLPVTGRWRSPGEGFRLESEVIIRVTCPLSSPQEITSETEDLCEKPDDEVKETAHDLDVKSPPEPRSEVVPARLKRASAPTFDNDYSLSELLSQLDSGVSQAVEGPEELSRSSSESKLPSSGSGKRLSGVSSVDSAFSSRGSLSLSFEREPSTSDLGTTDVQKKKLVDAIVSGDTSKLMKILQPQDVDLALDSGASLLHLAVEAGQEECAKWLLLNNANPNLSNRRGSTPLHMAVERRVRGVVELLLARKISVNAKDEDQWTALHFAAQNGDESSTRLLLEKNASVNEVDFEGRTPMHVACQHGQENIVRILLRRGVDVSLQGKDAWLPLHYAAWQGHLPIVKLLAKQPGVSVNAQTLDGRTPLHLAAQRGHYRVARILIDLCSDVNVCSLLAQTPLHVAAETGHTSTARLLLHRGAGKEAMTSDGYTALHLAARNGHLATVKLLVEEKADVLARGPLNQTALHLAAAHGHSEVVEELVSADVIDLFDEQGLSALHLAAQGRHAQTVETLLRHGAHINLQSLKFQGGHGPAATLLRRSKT
The following applies: at 10 µM.

The target in experiment [4] is T1, Rho-associated protein kinase 2. Particulars: at 10 µM.
Experiment [5] has as its target Serine/threonine-protein kinase PLK1 (Homo sapiens, UniProt P53350).
The target in experiment [6] is Serine/threonine-protein kinase SBK1 (Homo sapiens) (UniProt Q52WX2). The experiment can be described thus: Selectivity interaction (KinomeScan (DiscoverX)) EUB0001049a SBK1. Particulars: at 1 µM.
In experiment [7] the target is T3, Mitogen-activated protein kinase kinase kinase kinase 3 (Homo sapiens) (UniProt Q8IVH8).
T3 sequence (whole entry): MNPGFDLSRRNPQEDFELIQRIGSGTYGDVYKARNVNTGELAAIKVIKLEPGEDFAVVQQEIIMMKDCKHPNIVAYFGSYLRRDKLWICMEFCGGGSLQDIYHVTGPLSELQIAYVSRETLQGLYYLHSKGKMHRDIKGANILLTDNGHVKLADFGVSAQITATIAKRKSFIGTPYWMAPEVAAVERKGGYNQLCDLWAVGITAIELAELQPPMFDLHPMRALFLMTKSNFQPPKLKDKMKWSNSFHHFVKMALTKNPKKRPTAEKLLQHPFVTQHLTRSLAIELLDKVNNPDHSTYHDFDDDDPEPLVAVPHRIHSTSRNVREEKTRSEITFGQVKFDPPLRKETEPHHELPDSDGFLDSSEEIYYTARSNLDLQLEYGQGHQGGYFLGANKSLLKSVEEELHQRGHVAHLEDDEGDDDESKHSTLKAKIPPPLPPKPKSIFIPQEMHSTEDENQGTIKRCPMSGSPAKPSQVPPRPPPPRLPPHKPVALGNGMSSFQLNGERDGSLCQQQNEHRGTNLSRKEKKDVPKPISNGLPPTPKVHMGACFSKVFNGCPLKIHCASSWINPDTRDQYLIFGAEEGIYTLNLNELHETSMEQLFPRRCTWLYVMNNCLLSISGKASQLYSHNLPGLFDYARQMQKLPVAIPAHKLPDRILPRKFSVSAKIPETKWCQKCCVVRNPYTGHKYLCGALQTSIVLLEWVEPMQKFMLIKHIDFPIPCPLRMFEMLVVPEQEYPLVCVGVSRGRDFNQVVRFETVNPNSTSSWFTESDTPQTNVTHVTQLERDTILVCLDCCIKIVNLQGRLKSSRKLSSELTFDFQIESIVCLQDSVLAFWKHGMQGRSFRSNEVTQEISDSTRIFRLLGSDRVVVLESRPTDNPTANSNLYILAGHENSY
The experiment is described as follows: Selectivity interaction (KinomeScan (DiscoverX)) EUB0000655a MAP4K3. The following applies: at 10 µM.

The target in experiment [8] is Vascular endothelial growth factor receptor 1 (Homo sapiens) (UniProt P17948). The experiment can be described thus: Selectivity interaction (KinomeScan (DiscoverX)) EUB0000092b FLT1. Particulars: at 10 µM.
Experiment [9] concerns the target Microtubule-associated serine/threonine-protein kinase 1 (Homo sapiens) (UniProt Q9Y2H9). The experiment is described as follows: Selectivity interaction (KinomeScan (DiscoverX)) EUB0000229b MAST1. The following applies: at 10 µM.

T1 sequence (O75116 whole entry, looked up, canonical isoform): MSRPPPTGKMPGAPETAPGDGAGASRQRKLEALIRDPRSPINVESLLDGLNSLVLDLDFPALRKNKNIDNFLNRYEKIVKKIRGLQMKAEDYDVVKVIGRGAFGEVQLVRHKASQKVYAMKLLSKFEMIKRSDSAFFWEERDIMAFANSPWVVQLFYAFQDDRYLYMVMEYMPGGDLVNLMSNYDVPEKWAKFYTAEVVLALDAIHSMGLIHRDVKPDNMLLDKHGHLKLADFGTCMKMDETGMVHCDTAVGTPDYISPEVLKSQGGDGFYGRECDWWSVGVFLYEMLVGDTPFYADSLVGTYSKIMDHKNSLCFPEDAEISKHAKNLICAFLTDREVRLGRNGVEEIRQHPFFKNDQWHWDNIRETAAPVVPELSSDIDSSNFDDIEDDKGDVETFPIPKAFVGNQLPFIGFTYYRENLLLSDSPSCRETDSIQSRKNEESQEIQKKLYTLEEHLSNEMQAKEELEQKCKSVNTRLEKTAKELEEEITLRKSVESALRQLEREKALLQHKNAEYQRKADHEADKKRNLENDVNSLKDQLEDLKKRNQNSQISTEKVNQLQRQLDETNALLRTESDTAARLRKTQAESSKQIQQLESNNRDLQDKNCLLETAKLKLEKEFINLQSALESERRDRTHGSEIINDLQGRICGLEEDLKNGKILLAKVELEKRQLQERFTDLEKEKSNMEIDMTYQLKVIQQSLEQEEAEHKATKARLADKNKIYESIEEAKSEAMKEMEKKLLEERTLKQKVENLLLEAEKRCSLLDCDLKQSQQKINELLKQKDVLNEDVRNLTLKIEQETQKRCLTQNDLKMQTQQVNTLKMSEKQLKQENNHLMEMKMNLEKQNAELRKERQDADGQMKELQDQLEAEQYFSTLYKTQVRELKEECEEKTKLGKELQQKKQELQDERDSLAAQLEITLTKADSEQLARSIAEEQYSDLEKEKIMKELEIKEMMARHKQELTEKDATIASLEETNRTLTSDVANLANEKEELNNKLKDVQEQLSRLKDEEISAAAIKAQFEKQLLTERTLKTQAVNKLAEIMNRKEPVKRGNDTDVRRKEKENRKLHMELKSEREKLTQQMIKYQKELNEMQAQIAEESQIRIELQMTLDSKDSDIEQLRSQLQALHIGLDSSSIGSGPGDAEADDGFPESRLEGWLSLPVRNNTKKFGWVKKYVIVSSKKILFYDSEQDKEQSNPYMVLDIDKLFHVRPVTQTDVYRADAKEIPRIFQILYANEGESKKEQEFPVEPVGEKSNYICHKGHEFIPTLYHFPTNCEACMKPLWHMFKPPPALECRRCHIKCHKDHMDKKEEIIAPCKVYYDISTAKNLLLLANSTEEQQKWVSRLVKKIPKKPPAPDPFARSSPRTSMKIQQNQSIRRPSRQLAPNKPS
Serine/threonine-protein kinase PLK1, sequence (P53350 whole entry): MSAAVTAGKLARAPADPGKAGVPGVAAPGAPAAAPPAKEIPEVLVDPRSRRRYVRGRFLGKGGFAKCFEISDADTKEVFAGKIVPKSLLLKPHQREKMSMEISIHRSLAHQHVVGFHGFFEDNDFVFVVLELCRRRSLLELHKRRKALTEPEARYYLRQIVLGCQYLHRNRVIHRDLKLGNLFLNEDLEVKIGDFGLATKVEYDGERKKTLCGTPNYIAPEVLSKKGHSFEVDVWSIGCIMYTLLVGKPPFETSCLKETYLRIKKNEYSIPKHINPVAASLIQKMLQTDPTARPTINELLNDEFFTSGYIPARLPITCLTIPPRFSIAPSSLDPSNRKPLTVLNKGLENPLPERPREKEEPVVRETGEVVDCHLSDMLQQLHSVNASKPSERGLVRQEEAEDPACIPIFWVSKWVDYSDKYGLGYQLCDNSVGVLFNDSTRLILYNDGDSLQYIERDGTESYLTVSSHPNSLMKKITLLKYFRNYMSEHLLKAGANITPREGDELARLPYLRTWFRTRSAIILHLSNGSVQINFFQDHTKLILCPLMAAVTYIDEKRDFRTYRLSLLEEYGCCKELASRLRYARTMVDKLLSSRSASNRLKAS
Phosphorylase b kinase gamma catalytic chain, skeletal muscle/heart isoform (Homo sapiens), sequence (Q16816 whole entry, looked up, canonical isoform): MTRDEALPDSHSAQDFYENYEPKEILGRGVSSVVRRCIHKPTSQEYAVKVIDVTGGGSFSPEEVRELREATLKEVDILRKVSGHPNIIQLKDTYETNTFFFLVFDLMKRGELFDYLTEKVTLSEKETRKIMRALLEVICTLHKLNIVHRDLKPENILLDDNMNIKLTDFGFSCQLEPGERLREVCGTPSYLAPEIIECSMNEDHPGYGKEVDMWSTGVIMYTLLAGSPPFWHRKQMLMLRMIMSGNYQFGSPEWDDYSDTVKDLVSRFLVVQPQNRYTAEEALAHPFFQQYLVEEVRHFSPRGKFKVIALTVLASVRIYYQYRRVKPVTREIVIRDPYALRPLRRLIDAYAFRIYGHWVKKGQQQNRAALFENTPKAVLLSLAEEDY
Serine/threonine-protein kinase SBK1 (Homo sapiens), sequence (Q52WX2 whole entry): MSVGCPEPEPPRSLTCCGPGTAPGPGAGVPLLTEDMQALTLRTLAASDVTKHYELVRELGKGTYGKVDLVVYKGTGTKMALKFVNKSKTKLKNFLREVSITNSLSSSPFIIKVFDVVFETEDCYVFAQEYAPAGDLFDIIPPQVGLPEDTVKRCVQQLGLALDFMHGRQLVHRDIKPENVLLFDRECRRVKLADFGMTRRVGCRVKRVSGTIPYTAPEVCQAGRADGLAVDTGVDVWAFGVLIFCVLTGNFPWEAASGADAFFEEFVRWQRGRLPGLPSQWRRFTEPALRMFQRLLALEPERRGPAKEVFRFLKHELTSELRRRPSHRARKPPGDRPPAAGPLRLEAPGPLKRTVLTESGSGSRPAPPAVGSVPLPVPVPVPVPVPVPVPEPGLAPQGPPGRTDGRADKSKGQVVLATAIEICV
Microtubule-associated serine/threonine-protein kinase 1 (Homo sapiens), sequence (Q9Y2H9 whole entry, looked up): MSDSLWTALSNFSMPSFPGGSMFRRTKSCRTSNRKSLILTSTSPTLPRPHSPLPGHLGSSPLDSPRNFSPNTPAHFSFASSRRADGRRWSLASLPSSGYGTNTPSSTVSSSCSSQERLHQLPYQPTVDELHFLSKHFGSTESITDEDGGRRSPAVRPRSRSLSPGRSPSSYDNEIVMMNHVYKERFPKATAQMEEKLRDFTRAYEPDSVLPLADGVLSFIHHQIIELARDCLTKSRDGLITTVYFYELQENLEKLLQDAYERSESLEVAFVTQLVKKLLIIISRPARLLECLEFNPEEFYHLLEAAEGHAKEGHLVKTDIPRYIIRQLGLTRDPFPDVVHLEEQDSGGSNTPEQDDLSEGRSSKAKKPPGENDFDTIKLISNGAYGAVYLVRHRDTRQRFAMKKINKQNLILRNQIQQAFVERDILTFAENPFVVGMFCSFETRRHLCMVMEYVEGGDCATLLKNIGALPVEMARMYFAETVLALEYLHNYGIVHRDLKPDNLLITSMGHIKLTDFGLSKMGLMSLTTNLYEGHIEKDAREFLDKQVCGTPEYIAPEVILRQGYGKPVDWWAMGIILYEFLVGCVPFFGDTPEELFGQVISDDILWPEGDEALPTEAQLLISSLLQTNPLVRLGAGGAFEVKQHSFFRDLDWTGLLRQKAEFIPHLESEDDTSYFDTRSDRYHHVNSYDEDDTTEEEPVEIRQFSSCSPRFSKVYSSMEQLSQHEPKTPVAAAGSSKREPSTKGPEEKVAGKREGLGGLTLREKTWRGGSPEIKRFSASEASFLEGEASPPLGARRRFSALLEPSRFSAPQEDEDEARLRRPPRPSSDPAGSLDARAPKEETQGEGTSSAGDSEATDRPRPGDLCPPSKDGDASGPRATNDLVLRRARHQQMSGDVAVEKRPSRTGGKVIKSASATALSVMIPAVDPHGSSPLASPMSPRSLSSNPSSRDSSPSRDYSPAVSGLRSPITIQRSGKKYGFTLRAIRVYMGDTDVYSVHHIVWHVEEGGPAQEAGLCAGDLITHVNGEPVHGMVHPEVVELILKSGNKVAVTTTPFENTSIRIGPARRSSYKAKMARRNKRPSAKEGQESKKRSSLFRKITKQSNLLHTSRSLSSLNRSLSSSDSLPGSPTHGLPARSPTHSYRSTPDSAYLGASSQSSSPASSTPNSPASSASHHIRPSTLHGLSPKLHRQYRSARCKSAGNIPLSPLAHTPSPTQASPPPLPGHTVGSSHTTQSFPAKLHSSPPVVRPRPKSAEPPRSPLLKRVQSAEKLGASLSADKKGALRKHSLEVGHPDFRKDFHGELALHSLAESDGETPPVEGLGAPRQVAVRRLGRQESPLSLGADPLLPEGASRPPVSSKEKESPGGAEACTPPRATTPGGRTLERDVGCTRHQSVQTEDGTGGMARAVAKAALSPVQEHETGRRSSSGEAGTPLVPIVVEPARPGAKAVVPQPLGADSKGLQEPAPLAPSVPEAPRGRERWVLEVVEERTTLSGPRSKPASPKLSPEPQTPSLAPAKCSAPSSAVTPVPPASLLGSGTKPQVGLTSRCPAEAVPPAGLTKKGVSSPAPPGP

With `CNC(=O)Nc1ccc(-c2nc(N3CC4CCC(C3)O4)c3cnn(C4CCC5(CC4)OCCO5)c3n2)cc1`, the % of inhibition in [1] came out at 5%.

With `Cc1cc([C@@H](C)Nc2ccccc2C(=O)O)c2nc(N3CCOCC3)cc(=O)n2c1` [AZD-6482], the results for the % of control in experiment [2], in [3] and in experiment [4] were 93%, 99% and 91%, respectively.

As a reminder, the IC50 is the concentration at which inhibition is half-maximal. For `CCc1cccc(CC)c1NC(=O)c1nn(C)c2c1CCc1cnc(Nc3ccc(C(=O)NC4CCN(C)CC4)cc3OC(F)(F)F)nc1-2`, in experiment [5], the IC50 was more than 10 µM.

In the case of `COc1cc(Nc2nc(C)cc(-c3cnn4nc(OC)ccc34)n2)cc(C(F)(F)F)c1`, the % of control in experiment [6] amounted to 87%.

Molecule `CN(C)CCOc1ccc(-c2nc(-c3ccncc3)c(-c3ccc4c(c3)CC/C4=N\O)[nH]2)cc1` gave a % of control in [7] of 98%.

As for `CCC(=O)N1CCN(c2ccc(-n3c(=O)ccc4cnc5ccc(-c6cnc7ccccc7c6)cc5c43)cc2C(F)(F)F)CC1`, in experiment [8], the % of control came out at 79%.

In experiment [9], `COc1cc(N(C)c2ccnc3ccc(C(F)(F)F)cc23)cc(OC)c1OC` gave a % binding of 85%.

These data come from ChEMBL document CHEMBL5465560, “Selectivity Literature for EUbOPEN Chemogenomic Library” (2024).
